Source: the kinase profiling compilation of Christmann-Franck et al. (2016)

What was measured:
Assay in all cases: radiometric filter-binding kinase assay, Kinaseprofiler
RPS6KA6 KD1 KD2 (human) = RPS6KA6 KD1 KD2 (human) (UniProt Q9UK32); conditions: ATP 45 µM
CHEK1 (human) = CHEK1 (human) (UniProt O14757); conditions: ATP 90 µM
[1] = biological target: JAK3 JH1 catalytic (human) (UniProt P52333); conditions: ATP 10 µM
RPS6KA1 KD1 KD2 (human) = RPS6KA1 KD1 KD2 (human) (UniProt Q15418); conditions: ATP 45 µM
Sequence of RPS6KA1 KD1 KD2 (human) (Q15418 whole entry, looked up): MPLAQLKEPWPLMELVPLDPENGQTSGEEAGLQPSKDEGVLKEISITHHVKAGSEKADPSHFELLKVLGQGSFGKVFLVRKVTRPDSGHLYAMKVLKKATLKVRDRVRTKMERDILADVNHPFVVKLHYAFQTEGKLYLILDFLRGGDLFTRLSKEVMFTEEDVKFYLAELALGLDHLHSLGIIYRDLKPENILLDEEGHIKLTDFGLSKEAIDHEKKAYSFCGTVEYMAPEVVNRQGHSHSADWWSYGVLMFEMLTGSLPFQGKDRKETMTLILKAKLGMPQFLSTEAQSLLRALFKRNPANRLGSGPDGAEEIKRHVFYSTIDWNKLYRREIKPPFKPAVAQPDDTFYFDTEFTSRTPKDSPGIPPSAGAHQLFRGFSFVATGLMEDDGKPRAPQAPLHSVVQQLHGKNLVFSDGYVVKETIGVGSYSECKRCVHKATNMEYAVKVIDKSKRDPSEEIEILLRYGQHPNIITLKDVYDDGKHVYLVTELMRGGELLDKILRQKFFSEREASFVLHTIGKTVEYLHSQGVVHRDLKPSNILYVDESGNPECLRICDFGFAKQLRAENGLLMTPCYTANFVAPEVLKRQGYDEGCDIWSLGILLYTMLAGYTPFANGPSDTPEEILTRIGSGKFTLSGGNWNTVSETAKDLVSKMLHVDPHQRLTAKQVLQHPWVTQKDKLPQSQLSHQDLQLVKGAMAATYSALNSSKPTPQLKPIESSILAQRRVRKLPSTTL

CAMK2G (human) = CAMK2G (human) (UniProt Q13555); conditions: ATP 10 µM
Sequence of CAMK2G (human) (Q13555 whole entry, looked up): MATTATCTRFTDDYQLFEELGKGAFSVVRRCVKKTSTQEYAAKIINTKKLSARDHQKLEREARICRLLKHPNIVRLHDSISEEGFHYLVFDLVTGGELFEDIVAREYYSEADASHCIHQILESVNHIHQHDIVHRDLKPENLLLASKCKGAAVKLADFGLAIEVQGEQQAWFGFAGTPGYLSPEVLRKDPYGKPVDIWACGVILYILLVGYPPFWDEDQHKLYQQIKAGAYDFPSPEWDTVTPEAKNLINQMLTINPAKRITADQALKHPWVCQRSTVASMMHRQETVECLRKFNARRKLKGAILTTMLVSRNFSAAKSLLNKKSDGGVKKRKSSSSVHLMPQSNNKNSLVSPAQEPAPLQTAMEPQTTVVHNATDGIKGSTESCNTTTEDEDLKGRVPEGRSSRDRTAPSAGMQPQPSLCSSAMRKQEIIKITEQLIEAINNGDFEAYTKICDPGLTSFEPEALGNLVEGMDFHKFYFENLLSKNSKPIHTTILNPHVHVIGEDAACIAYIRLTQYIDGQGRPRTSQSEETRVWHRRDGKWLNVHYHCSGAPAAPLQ

MARK2 (human) = MARK2 (human) (UniProt Q7KZI7); conditions: ATP 15 µM
PRKX (human) = PRKX (human) (UniProt P51817); conditions: ATP 200 µM
PRKCB1 (human) = PRKCB1 (human) (UniProt P05771); conditions: ATP 10 µM
MAP2K1 (human) = MAP2K1 (human) (UniProt Q02750); conditions: ATP 10 µM
STK24 (human) = STK24 (human) (UniProt Q9Y6E0); conditions: ATP 15 µM
GRK5 (human) = GRK5 (human) (UniProt P34947); conditions: ATP 15 µM
ACVR1B (human) = ACVR1B (human) (UniProt P36896); conditions: ATP 10 µM
[2] = system: RPS6KB1 (human), P23443 [T412E]; conditions: ATP 15 µM
RIPK2 (human) = RIPK2 (human) (UniProt O43353); conditions: ATP 120 µM
STK11 (human) = STK11 (human) (UniProt Q15831); conditions: ATP 155 µM
EPHA4 (human) = EPHA4 (human) (UniProt P54764); conditions: ATP 15 µM
[3] = biological target: PRKAA1 PRKAB1 PRKAG1 (human) (UniProt P54619+Q13131+Q9Y478); conditions: ATP 45 µM
STK10 (human) = STK10 (human) (UniProt O94804); conditions: ATP 200 µM
Sequence of STK10 (human) (O94804 whole entry, looked up): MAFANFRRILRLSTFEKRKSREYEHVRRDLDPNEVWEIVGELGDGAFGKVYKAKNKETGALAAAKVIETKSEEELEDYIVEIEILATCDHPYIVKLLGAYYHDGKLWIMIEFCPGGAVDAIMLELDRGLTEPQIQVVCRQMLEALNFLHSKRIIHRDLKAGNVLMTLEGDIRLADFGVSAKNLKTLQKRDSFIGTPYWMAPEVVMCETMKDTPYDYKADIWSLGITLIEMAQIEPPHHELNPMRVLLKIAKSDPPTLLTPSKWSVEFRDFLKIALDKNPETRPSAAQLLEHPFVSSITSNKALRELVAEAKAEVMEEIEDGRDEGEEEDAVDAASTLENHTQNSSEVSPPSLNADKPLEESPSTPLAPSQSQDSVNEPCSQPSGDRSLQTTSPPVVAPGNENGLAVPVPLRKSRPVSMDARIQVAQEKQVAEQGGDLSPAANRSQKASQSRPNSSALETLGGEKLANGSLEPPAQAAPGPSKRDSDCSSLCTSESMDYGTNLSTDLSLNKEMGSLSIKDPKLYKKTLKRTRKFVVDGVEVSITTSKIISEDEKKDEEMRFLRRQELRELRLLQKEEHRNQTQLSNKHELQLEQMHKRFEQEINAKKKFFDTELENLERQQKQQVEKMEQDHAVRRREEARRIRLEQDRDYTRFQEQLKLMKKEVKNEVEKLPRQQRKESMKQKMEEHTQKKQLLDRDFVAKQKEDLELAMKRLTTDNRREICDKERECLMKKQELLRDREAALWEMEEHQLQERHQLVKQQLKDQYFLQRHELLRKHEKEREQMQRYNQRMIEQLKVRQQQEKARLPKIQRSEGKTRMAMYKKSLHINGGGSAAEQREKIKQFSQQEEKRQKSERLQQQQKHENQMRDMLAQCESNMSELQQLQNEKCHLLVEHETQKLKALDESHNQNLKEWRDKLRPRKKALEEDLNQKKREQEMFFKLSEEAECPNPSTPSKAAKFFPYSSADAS

BTK (human) = BTK (human) (UniProt Q06187); conditions: ATP 200 µM
PRKACA (human) = PRKACA (human) (UniProt P17612); conditions: ATP 10 µM
TXK (human) = TXK (human) (UniProt P42681); conditions: ATP 200 µM
STK4 (human) = STK4 (human) (UniProt Q13043); conditions: ATP 90 µM
STK3 (human) = STK3 (human) (UniProt Q13188); conditions: ATP 155 µM
Sequence of STK3 (human) (Q13188 whole entry, looked up): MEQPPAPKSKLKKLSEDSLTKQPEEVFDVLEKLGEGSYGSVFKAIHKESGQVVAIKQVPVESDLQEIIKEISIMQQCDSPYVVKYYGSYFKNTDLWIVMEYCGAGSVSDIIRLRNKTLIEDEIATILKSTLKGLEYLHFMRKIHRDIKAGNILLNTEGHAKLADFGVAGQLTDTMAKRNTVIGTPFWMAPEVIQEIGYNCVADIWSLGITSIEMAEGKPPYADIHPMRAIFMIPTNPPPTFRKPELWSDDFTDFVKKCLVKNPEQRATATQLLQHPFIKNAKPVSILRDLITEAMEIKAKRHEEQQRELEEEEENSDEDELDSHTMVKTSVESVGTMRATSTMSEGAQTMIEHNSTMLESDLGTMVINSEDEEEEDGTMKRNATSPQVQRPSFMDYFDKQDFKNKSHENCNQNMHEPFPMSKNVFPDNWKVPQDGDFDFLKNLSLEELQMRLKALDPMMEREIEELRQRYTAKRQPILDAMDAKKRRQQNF

NUAK1 (human) = NUAK1 (human) (UniProt O60285); conditions: ATP 45 µM
PASK (human) = PASK (human) (UniProt Q96RG2); conditions: ATP 15 µM
FYN (human) = FYN (human) (UniProt P06241); conditions: ATP 70 µM
[4] = biological target: PRKAA2 PRKAB1 PRKAG1 (human) (UniProt P54619+P54646+Q9Y478); conditions: ATP 45 µM
CLK3 (human) = CLK3 (human) (UniProt P49761); conditions: ATP 90 µM
Sequence of CLK3 (human) (P49761 whole entry, looked up): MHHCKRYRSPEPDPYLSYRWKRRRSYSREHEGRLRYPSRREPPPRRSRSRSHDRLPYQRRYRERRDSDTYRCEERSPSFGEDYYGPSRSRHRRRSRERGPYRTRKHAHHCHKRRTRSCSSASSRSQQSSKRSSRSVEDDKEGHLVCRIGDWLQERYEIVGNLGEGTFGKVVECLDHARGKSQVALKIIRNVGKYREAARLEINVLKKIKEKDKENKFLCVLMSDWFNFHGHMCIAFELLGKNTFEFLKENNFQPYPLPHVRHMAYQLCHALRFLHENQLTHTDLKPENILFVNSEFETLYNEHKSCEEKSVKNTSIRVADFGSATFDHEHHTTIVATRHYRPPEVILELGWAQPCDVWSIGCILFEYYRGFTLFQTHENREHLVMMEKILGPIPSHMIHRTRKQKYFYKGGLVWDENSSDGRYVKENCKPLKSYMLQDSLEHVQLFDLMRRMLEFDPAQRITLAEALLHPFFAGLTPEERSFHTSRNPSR

DCLK2 (human) = DCLK2 (human) (UniProt Q8N568); conditions: ATP 90 µM
Sequence of DCLK2 (human) (Q8N568 whole entry, looked up): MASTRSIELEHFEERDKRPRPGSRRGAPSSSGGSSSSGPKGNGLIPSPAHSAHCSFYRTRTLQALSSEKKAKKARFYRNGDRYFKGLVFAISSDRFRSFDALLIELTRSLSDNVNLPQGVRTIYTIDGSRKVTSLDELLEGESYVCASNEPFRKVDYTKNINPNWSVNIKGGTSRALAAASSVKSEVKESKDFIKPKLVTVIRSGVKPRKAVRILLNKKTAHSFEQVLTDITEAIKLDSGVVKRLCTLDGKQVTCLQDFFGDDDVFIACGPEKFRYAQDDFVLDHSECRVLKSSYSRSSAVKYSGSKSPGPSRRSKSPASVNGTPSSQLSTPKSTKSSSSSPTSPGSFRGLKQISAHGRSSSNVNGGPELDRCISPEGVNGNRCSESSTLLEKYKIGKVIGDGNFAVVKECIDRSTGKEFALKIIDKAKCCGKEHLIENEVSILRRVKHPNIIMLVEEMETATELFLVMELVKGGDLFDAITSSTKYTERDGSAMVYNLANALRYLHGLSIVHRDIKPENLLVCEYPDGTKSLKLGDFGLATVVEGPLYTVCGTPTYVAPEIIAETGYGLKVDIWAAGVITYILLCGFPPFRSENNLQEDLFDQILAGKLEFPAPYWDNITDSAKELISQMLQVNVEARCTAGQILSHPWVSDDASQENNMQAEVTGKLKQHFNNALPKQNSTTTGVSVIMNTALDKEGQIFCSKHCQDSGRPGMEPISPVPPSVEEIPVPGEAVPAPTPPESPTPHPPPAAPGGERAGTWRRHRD

AURKC (human) = AURKC (human) (UniProt Q9UQB9); conditions: ATP 15 µM
[5] = system: EEF2K (human), O00418 [H23R]; conditions: ATP 15 µM
WNK3 (human) = WNK3 (human) (UniProt Q9BYP7); conditions: ATP 200 µM

Sequence of RPS6KA6 KD1 KD2 (human) (Q9UK32 whole entry, looked up): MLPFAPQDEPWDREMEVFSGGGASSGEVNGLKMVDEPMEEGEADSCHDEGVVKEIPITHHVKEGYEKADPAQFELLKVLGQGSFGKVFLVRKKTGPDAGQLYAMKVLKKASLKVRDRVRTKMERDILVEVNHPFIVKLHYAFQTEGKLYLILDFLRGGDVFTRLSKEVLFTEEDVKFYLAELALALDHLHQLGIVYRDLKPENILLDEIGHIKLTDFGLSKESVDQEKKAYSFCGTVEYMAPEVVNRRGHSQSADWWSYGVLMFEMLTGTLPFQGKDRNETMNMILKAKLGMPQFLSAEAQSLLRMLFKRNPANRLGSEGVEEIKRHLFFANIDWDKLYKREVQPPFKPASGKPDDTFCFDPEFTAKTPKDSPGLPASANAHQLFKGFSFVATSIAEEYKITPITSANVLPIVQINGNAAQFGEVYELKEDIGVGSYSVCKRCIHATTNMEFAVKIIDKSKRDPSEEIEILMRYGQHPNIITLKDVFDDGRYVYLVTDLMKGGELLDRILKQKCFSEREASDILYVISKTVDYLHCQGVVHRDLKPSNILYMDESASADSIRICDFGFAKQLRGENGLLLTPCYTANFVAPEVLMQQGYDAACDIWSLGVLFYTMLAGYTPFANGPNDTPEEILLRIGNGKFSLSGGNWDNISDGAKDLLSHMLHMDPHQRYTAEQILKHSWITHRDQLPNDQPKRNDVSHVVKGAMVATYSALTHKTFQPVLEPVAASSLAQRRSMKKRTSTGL

Compound: O=C1Nc2ccccc2/C1=C1\Nc2ccccc2\C1=N/O
- residual activity (RPS6KA6 KD1 KD2 (human); compound 1.0 µM): 20%
- residual activity (RPS6KA6 KD1 KD2 (human); compound 10.0 µM): 12%
- residual activity (CHEK1 (human); compound 1.0 µM): 65%
- residual activity (CHEK1 (human); compound 10.0 µM): 30%
- residual activity ([1]; compound 1.0 µM): 21%
- residual activity ([1]; compound 10.0 µM): 2%
- residual activity (RPS6KA1 KD1 KD2 (human); compound 1.0 µM): 40%
- residual activity (RPS6KA1 KD1 KD2 (human); compound 10.0 µM): 6%
- residual activity (CAMK2G (human); compound 1.0 µM): 12%
- residual activity (CAMK2G (human); compound 10.0 µM): 1%
- residual activity (MARK2 (human); compound 1.0 µM): 48%
- residual activity (MARK2 (human); compound 10.0 µM): 14%
- residual activity (PRKX (human); compound 1.0 µM): 48%
- residual activity (PRKX (human); compound 10.0 µM): 33%
- residual activity (PRKCB1 (human); compound 1.0 µM): 93%
- residual activity (PRKCB1 (human); compound 10.0 µM): 94%
- residual activity (MAP2K1 (human); compound 1.0 µM): 64%
- residual activity (MAP2K1 (human); compound 10.0 µM): 55%
- residual activity (STK24 (human); compound 1.0 µM): 42%
- residual activity (STK24 (human); compound 10.0 µM): 10%
- residual activity (GRK5 (human); compound 1.0 µM): 92%
- residual activity (GRK5 (human); compound 10.0 µM): 58%
- residual activity (ACVR1B (human); compound 1.0 µM): 104%
- residual activity (ACVR1B (human); compound 10.0 µM): 72%
- residual activity ([2]; compound 1.0 µM): 37%
- residual activity ([2]; compound 10.0 µM): 13%
- residual activity (RIPK2 (human); compound 1.0 µM): 60%
- residual activity (RIPK2 (human); compound 10.0 µM): 27%
- residual activity (STK11 (human); compound 1.0 µM): 83%
- residual activity (STK11 (human); compound 10.0 µM): 44%
- residual activity (EPHA4 (human); compound 1.0 µM): 96%
- residual activity (EPHA4 (human); compound 10.0 µM): 83%
- residual activity ([3]; compound 1.0 µM): 2%
- residual activity ([3]; compound 10.0 µM): 0%
- residual activity (STK10 (human); compound 1.0 µM): 66%
- residual activity (STK10 (human); compound 10.0 µM): 71%
- residual activity (BTK (human); compound 1.0 µM): 31%
- residual activity (BTK (human); compound 10.0 µM): 4%
- residual activity (PRKACA (human); compound 1.0 µM): 90%
- residual activity (PRKACA (human); compound 10.0 µM): 54%
- residual activity (TXK (human); compound 1.0 µM): 45%
- residual activity (TXK (human); compound 10.0 µM): 11%
- residual activity (STK4 (human); compound 1.0 µM): 8%
- residual activity (STK4 (human); compound 10.0 µM): 2%
- residual activity (STK3 (human); compound 1.0 µM): 6%
- residual activity (STK3 (human); compound 10.0 µM): 0%
- residual activity (NUAK1 (human); compound 1.0 µM): 4%
- residual activity (NUAK1 (human); compound 10.0 µM): 7%
- residual activity (PASK (human); compound 1.0 µM): 112%
- residual activity (PASK (human); compound 10.0 µM): 76%
- residual activity (FYN (human); compound 1.0 µM): 5%
- residual activity (FYN (human); compound 10.0 µM): 0%
- residual activity ([4]; compound 1.0 µM): 1%
- residual activity ([4]; compound 10.0 µM): 3%
- residual activity (CLK3 (human); compound 1.0 µM): 79%
- residual activity (CLK3 (human); compound 10.0 µM): 54%
- residual activity (DCLK2 (human); compound 1.0 µM): 119%
- residual activity (DCLK2 (human); compound 10.0 µM): 74%
- residual activity (AURKC (human); compound 1.0 µM): 61%
- residual activity (AURKC (human); compound 10.0 µM): 49%
- residual activity ([5]; compound 1.0 µM): 109%
- residual activity ([5]; compound 10.0 µM): 93%
- residual activity (WNK3 (human); compound 1.0 µM): 89%
- residual activity (WNK3 (human); compound 10.0 µM): 60%
